The record followed here is patent US9427402B2, “Preparation for improving solubility of poorly soluble drug” (Shionogi & Co. Ltd., priority 2010, dated 2016).

Converted amounts (≈) assume the structure as drawn. Read-outs that look alike come from different tables or passages of the source.

The data set is described as follows: Solubility evaluation of drugs (buffer solutions, 37° C., HPLC). Conditions: for solubility in words: acidic / neutral solvents, conclusion from Table 1; for solubility at 3 h: thermodynamic from solid. The format is physicochemical. The procedure: A solvent was added to a drug, and ultrasonic irradiation treatment was performed on the resulting solution. The solution was agitated for 3 hours at 37° C. After 3 hours, the sample was filtered with a 0.45 μm filter, and the concentration of the drug in the filtrate was measured by a HPLC method. The solvents used were 100 mM of a citrate buffer solution (pH 4), 100 mM of a phosphate buffer (pH 7) and 100 mM of carbonic acid buffer solution (pH 9).

[1] abbreviates: aqueous buffer, 100 mM citrate buffer solution (pH 4), 37° C., 3 hours, read-out: Solubility pH 4.
The mark [2] stands for this setting: aqueous buffer, 100 mM phosphate buffer (pH 7), 37° C., 3 hours, read-out: Solubility pH 7.

As to `CCCCCCO[C@@H](C)c1cccc(-c2csc(NC(=O)c3cc(Cl)c(/C=C(\C)C(=O)O)c(Cl)c3)n2)c1OC` [Compound C-3B, (S)-(E)-3-(2,6-dichloro-4-{4-[3-(1-hexyloxyethyl)-2-methyloxyphenyl]thiazole 2-ylcarbamoyl}phenyl)-2-methylacrylic acid], the solubility in words result was “poorly soluble in an acidic and a neutral solvents”. Moreover, the solubility at 3 h (aqueous buffer, 100 mM carbonic acid buffer solution (pH 9), 37° C., 3 hours, read-out: Solubility pH 9) came to 7.7 µg/mL (≈ 13 µM). Moreover, under setting [1], the solubility at 3 h was not above 0.0004 µg/mL. Under setting [2], the solubility at 3 h is not above 0.0004 µg/mL. For the same compound, the solubility at 3 h (buffer solution, 37 °C, pH 7, aqueous buffer, solvent with a pH of 7 or less, read-out: solubility in a solvent with a pH of 7 or less) was not above 0.0004 µg/mL.

As to `COc1ccc2c(c1)c(CC(=O)O)c(C)n2C(=O)c1ccc(Cl)cc1` [Indomethacin, indomethacin, reference compound], the solubility in words entry is listed as “poorly soluble in an acidic solvent”. Besides, the solubility at 3 h under setting [1] came to 0.5 µg/mL (≈ 1.4 µM). The solubility at 3 h under setting [2] was 25 µg/mL (≈ 69.9 µM).
